# Assay results as given in patent US6600047B2, “Process for making amlodipine maleate” (Synthon BV, priority 2001, dated 2003).
structure (smiles),measurement,value
CCOC(=O)C1=C(COCCNC(CC(=O)O)C(=O)O)NC(C)=C(C(=O)OC)C1c1ccccc1Cl (stereo not shown) [formula (1)],melting point,178 to 183 °C (dec.)
